Tests used:
Magnaporthe oryzae = type: cell-based; details: at 25 μg/mL
[1] = system: a number of bacteria and fungi; details: concentration of 1 mg/ml; cited from earlier work
Paealomyces variotii = type: cell-based
Mucor miehei = type: cell-based
Bacillus brevis = type: cell-based
human neutrophils = details: cited from earlier work
HeLaS3 cells = details: 50 μg/mL, 72 h
a number of bacteria = details: concentration of 64 µg/mL; cited from earlier work

Compound: Cc1ccc2c(c1/C=C/C=C/C(=O)O)C(C)CC(C)C2O (stereo not shown) [arohynapene A]
- inhibition of the spore germination of Magnaporthe oryzae (Magnaporthe oryzae): 100%
- antimicrobial activity in vitro against a number of bacteria and fungi [1]: no antimicrobial activity

Compound: CC1Cc2ccc(CO)c(/C=C/C=C/C(=O)O)c2C(C)C1 (stereo not shown) [arohynapene B]
- inhibition of the spore germination of Magnaporthe oryzae (Magnaporthe oryzae): 100%
- antimicrobial activity in vitro against a number of bacteria and fungi [1]: no antimicrobial activity

Compound: Cc1ccc2c(c1/C=C/C=C/C(=O)O)[C@H](C)C[C@H](C)C2 [tanzawaic acid A]
- activity in agar diffusion assay against Paealomyces variotii (Paealomyces variotii): slight activity
- activity in agar diffusion assay against Mucor miehei (Mucor miehei): slight activity
- activity in agar diffusion assay against Bacillus brevis (Bacillus brevis): slight activity
- inhibition of superoxide anion production in human neutrophils (human neutrophils): inhibit superoxide anion production
- cytotoxic effects against HeLaS3 cells (HeLaS3 cells): cytotoxic effects

Compound: C[C@@H]1C[C@@](C)(O)Cc2ccc(CO)c(/C=C/C=C/C(=O)O)c21 [tanzawaic acid G, Tanzawaic acids G and H]
- activity against a number of bacteria (a number of bacteria): neither tanzawaic acids G nor H were found to be active

Compound: Tanzawaic acids A, B, C and D [tanzawaic acid B]
- inhibition of superoxide anion production in human neutrophils (human neutrophils): inhibit superoxide anion production

Compound: arohynapene D
- antimicrobial activity in vitro against a number of bacteria and fungi [1]: no antimicrobial activity

Compound: hynapenes A, B and C [hynapene A]
- antimicrobial activity in vitro against a number of bacteria and fungi [1]: show antimicrobial activity
